Measured values taken from PubChem BioAssay AID1963856 (Molecular Pharmacology Branch, DTP, NCI, 2024).

System: LG0567-F671-PDC KRAS tumor spheroid viability
Assay: Anticancer human tumor LG0567-F671-PDC patient-derived lung adenocarcinoma cell line growth inhibition [KRAS2]
Conditions: spheroids with HUVEC and MSC; for IC50: curve of first compound; for viability, T/C: stronger effect = lower value
How it was run: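 KRAS-mutant tumor cells were grown as spheroids with HUVEC endothelial cells and human MSCs as stroma. Targeted agents were tested alone and with KRAS pathway inhibitors. Doses started at or near clinical Cmax, or 10 microM, descending half-log.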

[1] = second compound 0.1 µM, first compound 0.0316 µM
[2] = second compound 0.1 µM, first compound 0.1 µM
[3] = second compound 0.1 µM, first compound 0.316 µM
[4] = second compound 0.1 µM, first compound 1 µM
[5] = second compound 0.1 µM, first compound 3.16 µM
[6] = second compound 0.1 µM, first compound 10 µM
[7] = second compound 0.316 µM, first compound 0.0316 µM
[8] = second compound 0.316 µM, first compound 0.1 µM
[9] = second compound 0.316 µM, first compound 0.316 µM
[10] = second compound 0.316 µM, first compound 1 µM
[11] = second compound 0.316 µM, first compound 3.16 µM
[12] = second compound 0.316 µM, first compound 10 µM
[13] = second compound 1 µM, first compound 0.0316 µM
[14] = second compound 1 µM, first compound 0.1 µM
[15] = second compound 1 µM, first compound 0.316 µM
[16] = second compound 1 µM, first compound 1 µM
[17] = second compound 1 µM, first compound 3.16 µM
[18] = second compound 1 µM, first compound 10 µM
[19] = second compound 3.16 µM, first compound 0.0316 µM
[20] = second compound 3.16 µM, first compound 0.1 µM
[21] = second compound 3.16 µM, first compound 0.316 µM
[22] = second compound 3.16 µM, first compound 1 µM
[23] = second compound 3.16 µM, first compound 3.16 µM
[24] = second compound 3.16 µM, first compound 10 µM
[25] = second compound 10 µM, first compound 0.0316 µM
[26] = second compound 10 µM, first compound 0.1 µM
[27] = second compound 10 µM, first compound 0.316 µM
[28] = second compound 10 µM, first compound 1 µM
[29] = second compound 10 µM, first compound 3.16 µM
[30] = second compound 10 µM, first compound 10 µM
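Note: drug exposure lasted seven days after spheroids formed for three days.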
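Throughout, for viability, T/C: 100% = DMSO vehicle control viability.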

Structure (SMILES)	IC50 (second compound 0.1 µM)	IC50 (second compound 0.316 µM)	IC50 (second compound 1 µM)	IC50 (second compound 3.16 µM)	IC50 (second compound 10 µM)	viability, T/C [1]	viability, T/C [2]	viability, T/C [3]	viability, T/C [4]	viability, T/C [5]	viability, T/C [7]	viability, T/C [8]	viability, T/C [9]	viability, T/C [10]	viability, T/C [11]	viability, T/C [13]	viability, T/C [14]	viability, T/C [15]	viability, T/C [16]	viability, T/C [17]	also measured
CC1OCC2(CCN(c3cnc(Sc4ccnc(N)c4Cl)c(N)n3)CC2)C1N (stereo not given) + CNCc1ccccc1-c1csc(C(C)Nc2nc(C)nc3cc(OC)c(OC)cc23)c1	68.1 nM	53.3 nM	75 nM	221 nM	< 31.6 nM	60.4%	44.5%	33.3%	28.6%	23.6%	57.1%	41.6%	30%	23.3%	22.1%	61.5%	43.4%	38.4%	24.8%	18.1%	viability, T/C [6]: 17.7%; viability, T/C [12]: 14.6%; viability, T/C [18]: 13.5%; viability, T/C [19]: 79.2%; viability, T/C [20]: 65.7%; viability, T/C [21]: 43.8%; viability, T/C [22]: 13.4%; viability, T/C [23]: 3.22%; viability, T/C [24]: 3.6%; viability, T/C [25]: 0.2%; viability, T/C [26]: 0.17%; viability, T/C [27]: 0.16%; viability, T/C [28]: 0.14%; viability, T/C [29]: 0.13%; viability, T/C [30]: 0.2%
Cn1nccc1Nc1nccc(-c2cc3c(s2)C(C)(C)N(CCN2CCOCC2)C3=O)n1 + CNCc1ccccc1-c1csc(C(C)Nc2nc(C)nc3cc(OC)c(OC)cc23)c1	581 nM	557 nM	340 nM	794 nM	< 31.6 nM	83.6%	68.6%	59.6%	44.1%	31.7%	66.2%	65.1%	54.2%	46%	28.3%	66.2%	66.1%	49.7%	35.6%	29.1%	viability, T/C [6]: 32%; viability, T/C [12]: 26.8%; viability, T/C [18]: 26.3%; viability, T/C [19]: 73.9%; viability, T/C [20]: 71.7%; viability, T/C [21]: 53.3%; viability, T/C [22]: 44.7%; viability, T/C [23]: 36.6%; viability, T/C [24]: 1.09%; viability, T/C [25]: 0.21%; viability, T/C [26]: 0.18%; viability, T/C [27]: 0.76%; viability, T/C [28]: 0.16%; viability, T/C [29]: 1.91%; viability, T/C [30]: 0.18%
CC(=O)OC12COC1CC(O)C1(C)C(=O)C(O)C3=C(C)C(OC(=O)C(O)C(NC(=O)OC(C)(C)C)c4ccccc4)CC(O)(C(OC(=O)c4ccccc4)C21)C3(C)C (stereo not given) + COc1cc2nc(C)nc(NC(C)c3cc(N)cc(C(F)(F)F)c3)c2cc1OC1CCOC1	> 3160 nM	< 10 nM	> 3160 nM	< 10 nM	> 3160 nM	52.6%	53.9%	57.9%	72.3%	58.7%	40%	52.4%	45.4%	51%	47.6%	69.2%	69.7%	70.5%	78.8%	50.3%	viability, T/C (second compound 0.1 µM, first compound 0.01 µM): 55.8%; viability, T/C (second compound 0.316 µM, first compound 0.01 µM): 48.6%; viability, T/C (second compound 1 µM, first compound 0.01 µM): 54.9%; viability, T/C (second compound 3.16 µM, first compound 0.01 µM): 50.5%; viability, T/C [19]: 46.9%; viability, T/C [20]: 56.3%; viability, T/C [21]: 48.9%; viability, T/C [22]: 57.1%; viability, T/C [23]: 59.1%; viability, T/C (second compound 10 µM, first compound 0.01 µM): 62.7%; viability, T/C [25]: 58.1%; viability, T/C [26]: 53.8%; viability, T/C [27]: 54.6%; viability, T/C [28]: 64.4%; viability, T/C [29]: 62.2%
